Data on one compound can be found in paper PMC5298231, “The Malaria Parasite's Lactate Transporter PfFNT Is the Target of Antiplasmodial Compounds Identified in Whole Cell Phenotypic Screens” (PLoS Pathogens, 2017).

For this experiment, the system named is MMV007839-selected culture B (PfFNT Gly107Ser). Description: Parasite proliferation assay, MMV007839-selected culture B. The format is cell-based, Plasmodium falciparum. Particulars: MMV007839-selected culture B; mean ± SEM; read-out: IC50 value, growth inhibition. The method, then:
Parasite proliferation was measured in 96-well plates using a fluorescent DNA-intercalating dye. The assays were initiated with erythrocytes infected with predominantly ring-stage parasites, and the starting parasitaemia was 0.5–1% and the haematocrit was 1%.
For MMV007839-selected culture A, the drug concentration was increased by 5 nM increments on Day 18, Day 21, and every two days thereafter. […] The cultures were provided with fresh medium and blood and diluted to reduce the parasitaemia as needed.

By IC50 is commonly meant the concentration needed to halve the response being measured.

Consider `COc1ccc2c(c1)OC(O)(C(F)(F)C(F)(F)F)CC2=O` (stereo not shown) [MMV007839], for which the 50% inhibitory concentration (IC50) was found to be 37.5 ± 2.7 µM.
